Measurements taken from paper PMC5655428, “Discovery and pharmacological characterization of a new class of prolyl-tRNA synthetase inhibitor for anti-fibrosis therapy” (PLoS ONE, 2017).

Assays:
[1] = test system: TGF-β-treated human skin fibroblast; assay: α-SMA and pro-COL1A1 protein ELISA in TGF-β-treated skin fibroblasts (Protocol 1); format: cell-based; details: TGF-β 1 ng/mL, 24 h; for pro-COL1A1 protein expression / α-SMA protein expression: 1-300 nM, 0.5 h pre-treatment, ELISA
Protocol: Primary human skin fibroblasts (NHDF-Ad) were obtained from Lonza (Basel, Switzerland). Cells were cultured and maintained in growth medium: Fibroblast Basal Medium (FBM) containing human fibroblast growth factor-B, insulin, fetal bovine serum (FBS) and gentamicin/amphotericin-B (Lonza). Cells were maintained in a humidified incubator at 37°C with 5% CO2 and used for experiments between passages 5 to 8.
Protocol 1: Cells were allowed to adhere overnight before being replaced with serum-free FBM for 24 h. Serum-starved cells were first pretreated with samples in DMSO at concentrations between 1 and 300 nM for 30 min and then stimulated with 1 ng/mL recombinant human TGF-β (R&D Systems, Minneapolis, MN, USA) for 24 h.
Cell lysates were prepared with cell lysis buffer (Cell Signaling Technology, Beverly, MA, USA) and subjected to α-SMA ELISA system (Abnova, Taipei, Taiwan) and Pro-type I Collagen α1 (pro-COL1A1) SimpleStep ELISA Kit (Abcam, Cambridge, UK, USA) according to the manufacturer's protocol.

[2] = biological target: 27 kinases; assay: kinase panel experiment; format: biochemical; details: almost no inhibitory activity, read-out: IC50 against 27 kinases
[3] = test system: skin fibroblasts; assay: Proline addition assay (α-SMA mRNA); format: cell-based, human; details: proline 0.05, 0.2 and 1 mM; compound 1-300 nM; 24 h
Protocol: Total RNA was isolated from in vivo samples using ISOGEN II (Nippongene) according to the manufacturer's instructions. In vitro RNA samples were prepared as mentioned above. High Capacity cDNA Reverse Transcription Kit (Life Technologies, Carlsbad, CA, USA) was used for cDNA synthesis. Real-time quantitative RT-PCR reactions were performed as a TaqMan method on a ViiA 7 real-Time PCR System (Life Technologies), using TaqMan Fast Advanced Master Mix (Lifer Technologies) with specific primers on TaqMan Gene Expression Assays (Life Technologies) according to the manufacturer's manual. […] The relative mRNA level of the target genes was calculated by the comparative threshold cycle (Ct) method using GAPDH (Gapdh) as an internal control for normalization. The fold change in the expression of each target gene was calculated by the following formula: relative quantification (RQ) = 2^-ΔΔCt.
To evaluate the effect of proline addition on anti-fibrosis by each compound, the cells were allowed to adhere overnight before being replaced with serum-free FBM for 24 h. […] Then real-time quantitative RT-PCR analysis was conducted as mentioned above.

[4] = test system: human skin fibroblast; assay: Transcriptome analysis (AmpliSeq) and gene signature analysis; format: cell-based; details: 300 nM, 24 h; >1.2-fold change, FDR < 0.05
Protocol: The Ion AmpliSeq Transcriptome Human Gene Expression Kit (ThermoFisher, Waltham, MA, USA) enables the simultaneous measurement of the expression levels of over 20,000 human genes in a single assay. AmpliSeq human-transcriptome libraries were constructed and sequenced by using the Ion Proton platform, according to the manufacturer’s instructions. Briefly, total RNA was extracted from human skin fibroblast treated with compounds for 24 h using the RNeasy Mini Kit. Reverse transcription was performed on 10 ng of the prepared total RNA samples using the AmpliSeq Whole Transcriptome primers with the included SuperScript® VILO^TM cDNA Synthesis kit (Life Technologies). Amplicons were ligated to adapters, and the resulting libraries were purified using Agencourt AMPure XP reagents (Beckman Coulter, Brea, CA, USA) and diluted to the concentration of 75 pM. Templated libraries were sequenced with the Ion Proton sequencer (ThermoFisher). AmpliSeq sequencing data were analyzed using the Ion Torrent Mapping Alignment Program. Identification of differentially expressed genes (DEGs) and comparative gene signature analysis were done in NextBio (http://nextbio.com). Gene expression data was taken by using our ATP-competitive PRS inhibitor analog (IC50: < 3.0 nM). […]

[5] = mouse, in vivo
Protocol: The experimenters were blinded to the treatments given to the animals and to the biochemical and histological analyses and the data analyses. Eight-week-old C3H/He male mice (weighing 23~28 g, Japan SLC, Inc., Hamamatsu, Japan) were used for all the in vivo experiments. […] These animals were maintained on a 12/12 h light/dark cycle with constant temperature (23 ± 2°C) under specific pathogen-free conditions. Standard chow diet and water were available ad libitum.
After acclimatization for 1 weeks, animals were randomly divided according to body weight and treated for 3 to 5 consecutive days as follows. The ear and dorsal skin of mouse were intradermally injected with 20 μL (100 μL, dorsal skin) PBS or 500 ng TGF-β in PBS under anaesthesia with 3–4% sevoflurane. Injections were continued in this manner daily for 3 days (days 0, 1 and 2) or 5 days (days 0, 1, 2, 3 and 4). Treatment protocol included the daily topical application of T-3833261 or HF cream on the ear (40 μL/ear) 1 h before injections into the ear. A vehicle without compounds was applied to control mice. The topical material contained sorbitan sesquioleate (50 g), lanolin (50 g), liquid paraffin (250 g), propylene glycol (50 g), 90% lactic acid (1.5 g), T-3833261 (0.1, 0.3 and 1 g) or HF (0.1 g), and distilled water as the rest material. Topical application of compound was continued for 7 days. Mice were euthanized by cervical dislocation under sevoflurane anesthesia at 3 or 5 days after last TGF-β injection and the ear surrounding the TGF-β injection site was harvested with 8 μm biopsy punch under anesthesia.

| SMILES | pro-COL1A1 protein expression [1] | α-SMA protein expression [1] | concentration reducing α-SMA and pro-COL1A1 proteins below the basal level of non-stimulated cells [1] [nM] | IC50 [2] [µM] | effect of proline addition on inhibition of α-SMA gene expression [3] | number of genes with altered expression levels compared to vehicle-treated cells [4] [genes] | Body weight day 0 [5] [g] | Body weight day 7 [5] [g] | body weight of the mice after one week of continuous topical application [5] |
| --- | --- | --- | --- | --- | --- | --- | --- | --- | --- |
| Cn1cc(-c2cc(F)cc(CNC(=O)c3nccc4nc(C5CCCC5)[nH]c34)c2)cn1 [T-3833261, 2-Cyclopentyl-N-(3-fluoro-5-(1-methyl-1H-pyrazol-4-yl)benzyl)-3H-imidazo[4,5-c]pyridine-4-carboxamide] | suppressed pro-COL1A1 protein expression in a dose-dependent manner | suppressed α-SMA protein expression in a dose-dependent manner | ≥ 100 | > 1 | proline addition did not affect the activity |  |  |  |  |
| O=C(CC1NCCCC1O)Cn1cnc2cc(Br)c(Cl)cc2c1=O (stereo not shown) [HF, Halofuginone, reference compound] | suppressed pro-COL1A1 protein expression in a dose-dependent manner | suppressed α-SMA protein expression in a dose-dependent manner | ≥ 100 |  | attenuated by adding proline to the medium | 8229 | 22.5 ± 0.3 | 23.7 ± 0.3 | did not change |
